Test results taken from ChEMBL document CHEMBL5727648, “5-aromatic alkynyl substituted benzamide compound and preparation method, pharmaceutical composition, and use thereof” (2020).

Target: Metabotropic glutamate receptor 5 (Homo sapiens, UniProt P41594)
Test: The Fluo 8-AM fluorescent dye is an […] derivative of Fluo 8 which can easily penetrate the cell membrane into the cell by culture. The fluorescent dye into the cell will be hydrolyzed by intracellular esterase, the resulting Fluo 8 cannot easily pass through the lipid bimolecular membrane as a polar molecule, and will retain in the cell, and combine with calcium (Ca2+) to produce fluoresces.Cells expressing GPCR receptor protein (mGluR5) were first calibrated with a calcium ion sensitive fluorescent probe and then stimulated with the compound. After stimulation, the activation of the receptor lead to the calcium ion mobilization, and the fluorescent probe captures the calcium ion to induce the fluorescence signal. The signal can be read by a fluorescent plate reader. The fluorescent plate reader contains a sampling head for compound addition, thus enabling the change of the fluorescence value of the compound be read in real time.
Assay type: cell-based

Chain of Metabotropic glutamate receptor 5 (P41594 whole entry): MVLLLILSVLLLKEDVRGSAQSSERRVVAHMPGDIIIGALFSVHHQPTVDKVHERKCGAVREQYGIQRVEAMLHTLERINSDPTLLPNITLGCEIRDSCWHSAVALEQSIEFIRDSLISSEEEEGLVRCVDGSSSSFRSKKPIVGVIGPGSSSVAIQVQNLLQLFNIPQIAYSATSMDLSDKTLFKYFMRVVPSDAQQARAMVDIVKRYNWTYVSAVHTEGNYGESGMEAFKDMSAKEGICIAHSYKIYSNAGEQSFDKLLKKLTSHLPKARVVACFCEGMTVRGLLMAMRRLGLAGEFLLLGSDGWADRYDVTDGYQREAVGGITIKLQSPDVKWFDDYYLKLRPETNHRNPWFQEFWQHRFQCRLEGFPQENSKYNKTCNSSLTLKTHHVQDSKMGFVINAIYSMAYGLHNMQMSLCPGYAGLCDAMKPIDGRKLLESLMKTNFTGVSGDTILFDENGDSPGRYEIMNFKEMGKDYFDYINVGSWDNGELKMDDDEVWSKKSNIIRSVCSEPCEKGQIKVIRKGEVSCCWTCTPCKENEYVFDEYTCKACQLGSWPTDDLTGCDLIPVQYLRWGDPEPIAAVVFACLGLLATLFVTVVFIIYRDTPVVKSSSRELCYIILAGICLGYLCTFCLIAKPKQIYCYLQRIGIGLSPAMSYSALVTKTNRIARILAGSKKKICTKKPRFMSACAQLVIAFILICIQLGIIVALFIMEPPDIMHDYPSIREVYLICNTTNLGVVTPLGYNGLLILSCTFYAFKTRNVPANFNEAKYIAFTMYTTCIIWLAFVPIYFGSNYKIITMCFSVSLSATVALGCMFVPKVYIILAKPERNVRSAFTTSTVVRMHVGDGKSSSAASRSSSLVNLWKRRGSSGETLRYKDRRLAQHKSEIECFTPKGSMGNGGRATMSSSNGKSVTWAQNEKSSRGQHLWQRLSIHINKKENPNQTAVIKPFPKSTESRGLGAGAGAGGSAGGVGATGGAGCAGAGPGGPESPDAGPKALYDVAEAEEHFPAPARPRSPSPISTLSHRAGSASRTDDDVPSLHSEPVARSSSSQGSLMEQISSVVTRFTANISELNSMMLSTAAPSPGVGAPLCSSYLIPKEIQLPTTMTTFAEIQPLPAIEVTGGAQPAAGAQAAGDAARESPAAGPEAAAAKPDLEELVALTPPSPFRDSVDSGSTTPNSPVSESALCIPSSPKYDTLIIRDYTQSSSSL

Cc1nc(C#Cc2cccc(C(=O)N3CCc4ccccc4C3)c2)cs1
IC50: 14.4 nM

Cc1nc(C#Cc2cccc(C(=O)Nc3cccnc3)c2)cs1
IC50: 14.2 nM
